Assay [1] deals with CT26 tumor cells. In words: CT26 syngeneic mouse tumor model (survival and tumor volume). The format is in vivo. The settings on record: for Median Survival: CT26 tumor bearing BALB/cJ mice, PF-06952229 30 mg/kg PO BID 7 days on/7 off, palbociclib 10 mg/kg PO BID, PF-06873600 50 mg/kg PO BID, survival endpoint tumor volume 2000 mm^3. Here is the method:
CT26 cells were obtained from American Type Culture Collection (ATCC) and cultured in Roswell Park Memorial Institute (RPM11640) supplemented with 10% fetal bovine serum (FBS). All cells were maintained in a humidified incubator at 37° C. with 5% carbon dioxide (CO2). Female Balb/cJ mice were obtained from Jackson Laboratories at 8 weeks of age. To generate the syngeneic model, 0.25 million CT26 tumor cells were subcutaneously implanted into the right flank of female BALB/cJ mice. Tumor bearing mice were randomized into six treatment groups based on average tumor sizes of approximately 50 mm^3 per group, on Day 10 post tumor cell implantation. Study groups included vehicle, 30 mg/kg PF-06952229, 10 mg/kg PD-0332991 (Palbociclib), PF-06873600 (CDK 2/4/6 inhibitor), combination of PF-06952229 +PD-0332991 and combination of PF-06952229+PF-06873600. PF-06952229 was administered orally twice daily (BID) with 7 days on and 7 days off schedule. PD-0332991 or PF-06873600 was administered orally BID continuously, until the end of the study.
Tumor volumes were measured three times a week. Tumor volume was calculated based on two dimensional caliper measurement with cubic millimeter volume calculated using the formula (length×width2)×0.5. Mice were sacrificed when the tumor volumes reached 2000 mm^3, which was the survival endpoint for this study. Survival curves were plotted using GraphPad Prism 7 software. Statistical analyses were performed using the Log-rank (Mantel-Cox) test.

The test system of assay [2] is pS807/811 Rb. In words: Phospho-Rb Ser807/811 Bioassay of MCF7 xenograft tumor lysates. The settings on record: tumor samples Day 21 post-treatment initiation; result in words.
In assay [3] the test system is MCF7 human ER+ breast cancer cells. Put plainly: MCF7 human ER+ xenograft mouse tumor model (tumor volume). In kind it is in vivo. As to conditions: NSG mice; Day 21 post-treatment initiation; PF-06952229 30 mg/kg PO BID 7 on/7 off, PD-0332991 10 mg/kg PO BID, PF-05279929 10 mg/kg SC twice per week; result in words. Here is the method: MCF7 human ER^+ breast cancer cells were obtained from American Type Culture
Collection (ATCC) and cultured in Roswell Park Memorial Institute (RPMI1640) supplemented with 10% fetal bovine serum (FBS). All cells were maintained in a humidified incubator at 37° C. with 5% carbon dioxide (CO2). Female NSG mice were obtained from Jackson Laboratories at 7 weeks of age. To generate the xenograft model, 17β-ESTRADIOL pellets (0.36 mg, 90-day release) were subcutaneously implanted into the left flank of female NSG mice, 7 days before the tumor cell implantation. Then 5 million MCF7 cancer cells were subcutaneously implanted into the right axial region of female NSG mice. Tumor-bearing mice were randomized into treatment groups based on average tumor sizes of approximately 180 mm^3, on Day 27 post-tumor cell implantation, and treatments were initiated. […]
Tumor volumes were measured two times a week. Tumor volume was calculated based on two-dimensional caliper measurement with cubic millimeter volume calculated using the formula (length×width^2)×0.5. Body weights were measured two times a week. […] Comparisons of treated groups to control group or to other treated groups are made using a t statistic under the ANCOVA model with fold change and the associated 95% confidence interval calculated.

Assay [4] concerns pSMAD2. Put plainly: pSMAD2 Bioassay of MCF7 xenograft tumor samples. The format is in vivo, human. The settings on record: tumor samples Day 21 post-treatment initiation; result in words. The protocol: pSMAD2 Bioassay: Tumor samples were collected and snap-frozen in 2.0 mL cryogenic tubes (Nalgene™) prior to analysis. Thawed tumor samples were homogenized in cell extraction buffer (Invitrogen, Carlsbad, Calif.) with addition of protease and phosphatase inhibitors. Tumor lysates were centrifuged to pellet insoluble debris, and the clarified supernatants were transferred to new tubes. pSmad2 was measured using a 6-Plex TGFbeta Signaling Magnetic Bead Kit (Millipore, Burlington, Mass.). All assays were carried out at room temperature. After blocking a 96-well black round-bottom plate with assay buffer for 10 minutes, 25 μL of the working microsphere bead mixture (beads were diluted to 1× with assay buffer from kit) and 25 μL of 1:10 diluted tumor lysate (1:10 dilution with assay buffer) were added to the plate. […] After washing, the beads were resuspended in 150 μL/well of sheath fluid (Bio-Rad catalog # 171-000055) and analyzed using a Bio-Plex 200 analyzer (Bio-Rad, Hercules Calif.). The mean fluorescence intensity (MFI) from each well was determined using Bio-Plex Manager Software, version 6.1 (Bio-Rad). […]
Total Smad2 Bioassay: PathScan Total Smad2 Sandwich ELISA Kit (Cell signaling, Catolog #7244C) was used to determine the total Smad2 protein according to manufacturer's instructions. […] The absorbance of the samples at 450 nm was measured on a Spectramax plate reader (Molecular Devices).

Each structure is given as a SMILES string.

For the compound `CC(=O)c1c(C)c2cnc(Nc3ccc(N4CCNCC4)cn3)nc2n(C2CCCC2)c1=O` [Palbociclib, 6-acetyl-8-cyclopentyl-5-methyl-2-(5-piperazin-1-yl-pyridin-2-ylamino)-8H-pyrido[2,3-d]pyrimidin-7-one, reference compound], the “Median Survival” value in assay [1] was determined as 26.5 days. For the same compound, the “pS807/811 Rb levels” value in assay [2] is reported as “slight decrease”.

As for `C[C@@]1(O)CCC[C@H]1n1c(=O)c(C(F)F)cc2cnc(NC3CCN(S(C)(=O)=O)CC3)nc21` [PF-06873600], in assay [1], the “Median Survival” value came out at 26.5 days.

Take `CC(C)c1cnc(-c2cc(Cl)ccc2F)cc1Nc1ccncc1C(=O)NC(CO)CO` [PF-06952229, 4-(2-(5-chloro-2-fluorophenyl)-5-isopropylpyridin-4-ylamino)-N-(1,3-dihydroxypropan-2-yl)nicotinamide]: the “Median Survival” value in assay [1] turned out to be 24 days. For the same compound, the Tumor growth inhibition entry in assay [1] (Day 17 post-treatment initiation, result in words) is “did not significantly inhibit tumor growth”; in assay [3], “did not significantly inhibit tumor growth”. The Survival entry in assay [1] (Day 40 post-treatment initiation, result in words) was “did not significantly increase survival”. In addition, the “Inhibition of pSMAD2” value in assay [4] is on record as “significant inhibition of pSMAD2”. Moreover, the “pS807/811 Rb levels” value in assay [2] is “slight increase”.

The values are drawn from patent publication US20210346384A1, “COMBINATIONS OF TGF-BETA INHIBITORS AND CDK INHIBITORS FOR CANCER TREATMENTS” (PFIZER INC., priority 2018, published 2021).
